Laboratory results reported in ChEMBL document CHEMBL1201862, “PubChem BioAssay data set” (2004).
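Compound exposure: 48 hours, 5 concentrations, 96-well plates. GI50 marks 50% less growth.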 Calls of active or inactive are those of the source. Rule as the data show it: active = GI50 up to about 1.1 µM and inactive = higher.

How the values were obtained:
Assay in all cases: inhibition of tumour cell growth, NCI panel, 48 h
HCT-116 = test system: HCT-116
BT-549 = test system: BT-549
HOP-62 = test system: HOP-62
SK-MEL-28 = test system: SK-MEL-28
KM12 = test system: KM12
HL-60 = test system: HL-60
OVCAR-4 = test system: OVCAR-4
SF-539 = test system: SF-539
OVCAR-5 = test system: OVCAR-5
DU-145 = test system: DU-145
EKVX = test system: EKVX
UO-31 = test system: UO-31
SR = test system: SR
MOLT-4 = test system: MOLT-4
NCI/ADR-RES = test system: NCI/ADR-RES
UACC-62 = test system: UACC-62
SF-295 = test system: SF-295
K562 = test system: K562
SK-MEL-2 = test system: SK-MEL-2
SNB-75 = test system: SNB-75
MCF7 = test system: MCF7
T47D = test system: T47D
NCI-H23 = test system: NCI-H23
UACC-257 = test system: UACC-257
Hs-578T = test system: Hs-578T
COLO 205 = test system: COLO 205
SK-MEL-5 = test system: SK-MEL-5
Malme-3M = test system: Malme-3M
786-0 = test system: 786-0
SK-OV-3 = test system: SK-OV-3
MDA-N = test system: MDA-N
TK-10 = test system: TK-10
SF-268 = test system: SF-268
ACHN = test system: ACHN
PC-3 = test system: PC-3
CCRF-CEM = test system: CCRF-CEM
U-251 = test system: U-251
IGROV-1 = test system: IGROV-1
NCI-H522 = test system: NCI-H522
NCI-H226 = test system: NCI-H226
HOP-92 = test system: HOP-92
A549 = test system: A549
MDA-MB-231 = test system: MDA-MB-231
SNB-19 = test system: SNB-19
HCC 2998 = test system: HCC 2998
NCI-H460 = test system: NCI-H460
M14 = test system: M14
RPMI-8226 = test system: RPMI-8226
CAKI-1 = test system: CAKI-1
SW-620 = test system: SW-620
OVCAR-8 = test system: OVCAR-8
RXF 393 = test system: RXF 393
SN12C = test system: SN12C
OVCAR-3 = test system: OVCAR-3
HT-29 = test system: HT-29
LOX IMVI = test system: LOX IMVI
A498 = test system: A498
HCT-15 = test system: HCT-15
MDA-MB-435 = test system: MDA-MB-435

O=C(NCCCCl)c1c(O)c2ccccc2[nH]c1=O was tested, and the GI50 (HCT-116) was > 100 µM (inactive), the GI50 (BT-549) was > 78 µM (inactive) and the GI50 (HOP-62) was > 50.6 µM (inactive). The GI50 (SK-MEL-28) was > 100 µM (inactive), the GI50 (KM12) was > 100 µM (inactive) and the GI50 (HL-60) was > 100 µM (inactive). The GI50 (OVCAR-4) was > 100 µM (inactive), the GI50 (SF-539) was > 54 µM (inactive) and the GI50 (OVCAR-5) was > 100 µM (inactive). For the same molecule, the GI50 (DU-145) was > 100 µM (inactive), the GI50 (EKVX) was 50.6 µM (inactive) and the GI50 (UO-31) was > 100 µM (inactive). For the same molecule, the GI50 (SR) was > 100 µM (inactive), the GI50 (MOLT-4) was > 100 µM (inactive) and the GI50 (NCI/ADR-RES) was > 71 µM (inactive). For the same molecule, the GI50 (UACC-62) was > 50.9 µM (inactive), the GI50 (SF-295) was > 48.9 µM (inactive) and the GI50 (K562) was > 100 µM (inactive). The GI50 (SK-MEL-2) was > 94 µM (inactive), the GI50 (SNB-75) was > 54.5 µM (inactive) and the GI50 (MCF7) was > 91.8 µM (inactive). For the same molecule, the GI50 (T47D) was > 73.3 µM (inactive), the GI50 (NCI-H23) was > 87.3 µM (inactive) and the GI50 (UACC-257) was > 100 µM (inactive). For the same molecule, the GI50 (Hs-578T) was > 56.8 µM (inactive), the GI50 (COLO 205) was > 100 µM (inactive) and the GI50 (SK-MEL-5) was > 100 µM (inactive). For the same molecule, the GI50 (Malme-3M) was > 100 µM (inactive), the GI50 (786-0) was > 61 µM (inactive) and the GI50 (SK-OV-3) was > 80.5 µM (inactive). For the same molecule, the GI50 (MDA-N) was > 100 µM (inactive), the GI50 (TK-10) was > 100 µM (inactive) and the GI50 (SF-268) was > 72.1 µM (inactive). For the same molecule, the GI50 (ACHN) was > 100 µM (inactive), the GI50 (PC-3) was > 100 µM (inactive) and the GI50 (CCRF-CEM) was > 100 µM (inactive). For the same molecule, the GI50 (U-251) was > 100 µM (inactive), the GI50 (IGROV-1) was > 100 µM (inactive) and the GI50 (NCI-H522) was > 65.5 µM (inactive). For the same molecule, the GI50 (NCI-H226) was > 100 µM (inactive), the GI50 (HOP-92) was > 43.3 µM (inactive) and the GI50 (A549) was > 100 µM (inactive). The GI50 (MDA-MB-231) was > 100 µM (inactive), the GI50 (SNB-19) was > 100 µM (inactive) and the GI50 (HCC 2998) was > 76.2 µM (inactive). The GI50 (NCI-H460) was > 100 µM (inactive), the GI50 (M14) was > 100 µM (inactive) and the GI50 (RPMI-8226) was > 100 µM (inactive). The GI50 (CAKI-1) was > 100 µM (inactive), the GI50 (SW-620) was > 100 µM (inactive) and the GI50 (OVCAR-8) was > 100 µM (inactive). For the same molecule, the GI50 (RXF 393) was > 41.3 µM (inactive), the GI50 (SN12C) was > 100 µM (inactive) and the GI50 (OVCAR-3) was > 100 µM (inactive). The GI50 (HT-29) was > 100 µM (inactive), the GI50 (LOX IMVI) was > 100 µM (inactive) and the GI50 (A498) was 32.4 µM (inactive). The GI50 (HCT-15) was over 100 µM and the GI50 (MDA-MB-435) was > 100 µM (inactive).

For C[C@H](CCC(=O)NCCS(=O)(=O)O)[C@H]1CC[C@H]2[C@@H]3CC[C@@H]4C[C@H](O)CC[C@]4(C)[C@H]3CC[C@]12C, the GI50 (HCT-116) was > 100 µM (inactive), the GI50 (BT-549) was > 100 µM (inactive) and the GI50 (HOP-62) was > 100 µM (inactive). The GI50 (SK-MEL-28) was > 100 µM (inactive), the GI50 (KM12) was > 100 µM (inactive) and the GI50 (HL-60) was > 100 µM (inactive). For the same molecule, the GI50 (OVCAR-4) was > 100 µM (inactive), the GI50 (SF-539) was > 100 µM (inactive) and the GI50 (OVCAR-5) was > 100 µM (inactive). For the same molecule, the GI50 (DU-145) was > 100 µM (inactive), the GI50 (EKVX) was > 100 µM (inactive) and the GI50 (UO-31) was > 100 µM (inactive). For the same molecule, the GI50 (SR) was 28.7 µM (inactive), the GI50 (MOLT-4) was 91 µM (inactive) and the GI50 (NCI/ADR-RES) was > 100 µM (inactive). For the same molecule, the GI50 (UACC-62) was > 100 µM (inactive), the GI50 (SF-295) was > 100 µM (inactive) and the GI50 (K562) was > 100 µM (inactive). The GI50 (SK-MEL-2) was > 100 µM (inactive), the GI50 (SNB-75) was > 100 µM (inactive) and the GI50 (MCF7) was > 100 µM (inactive). The GI50 (T47D) was > 100 µM (inactive), the GI50 (NCI-H23) was > 100 µM (inactive) and the GI50 (UACC-257) was > 100 µM (inactive). For the same molecule, the GI50 (Hs-578T) was > 100 µM (inactive), the GI50 (COLO 205) was > 100 µM (inactive) and the GI50 (SK-MEL-5) was > 100 µM (inactive). For the same molecule, the GI50 (Malme-3M) was > 100 µM (inactive), the GI50 (786-0) was > 100 µM (inactive) and the GI50 (SK-OV-3) was > 100 µM (inactive). For the same molecule, the GI50 (MDA-N) was > 100 µM (inactive), the GI50 (TK-10) was > 100 µM (inactive) and the GI50 (SF-268) was > 100 µM (inactive). The GI50 (ACHN) was > 100 µM (inactive), the GI50 (PC-3) was > 100 µM (inactive) and the GI50 (CCRF-CEM) was > 100 µM (inactive). The GI50 (U-251) was > 100 µM (inactive), the GI50 (IGROV-1) was > 100 µM (inactive) and the GI50 (NCI-H522) was > 100 µM (inactive). For the same molecule, the GI50 (NCI-H226) was > 100 µM (inactive), the GI50 (HOP-92) was > 100 µM (inactive) and the GI50 (A549) was > 100 µM (inactive). For the same molecule, the GI50 (MDA-MB-231) was > 100 µM (inactive), the GI50 (SNB-19) was > 100 µM (inactive) and the GI50 (HCC 2998) was > 100 µM (inactive). The GI50 (NCI-H460) was > 100 µM (inactive), the GI50 (M14) was > 100 µM (inactive) and the GI50 (RPMI-8226) was > 100 µM (inactive). The GI50 (CAKI-1) was > 100 µM (inactive), the GI50 (SW-620) was > 100 µM (inactive) and the GI50 (OVCAR-8) was > 100 µM (inactive). For the same molecule, the GI50 (RXF 393) was > 100 µM (inactive), the GI50 (SN12C) was > 100 µM (inactive) and the GI50 (OVCAR-3) was > 100 µM (inactive). The GI50 (HT-29) was > 100 µM (inactive), the GI50 (LOX IMVI) was > 100 µM (inactive) and the GI50 (A498) was > 100 µM (inactive). For the same molecule, the GI50 (HCT-15) was over 100 µM and the GI50 (MDA-MB-435) was > 100 µM (inactive).
